Like-named read-outs stand apart in the source and are kept apart here.
Key:
human 11β-HSD1 = target: T1, human 11β-HSD1 (Homo sapiens, UniProt P28845); test: Cellular in vitro 11β-HSD1 enzyme inhibition assay (SPA, HEK293/11β-HSD1 cells); format: cell-based; conditions: read-out: IC50 for 11β-HSD1 (HEK293)
T1 construct: stably transfected with a construct containing the full-length gene coding for the human 11β-HSD1 enzyme; expressed in transfected cells; host or cells: HEK293 (stably transfected, HEK293/11β-HSD1)
Description: Compounds were assessed by a Scintillation Proximity Assay (SPA) performed according to the following protocol:
HEK293 cells were stably transfected with a construct containing the full-length gene coding for the human 11β-HSD1 enzyme to create HEK293/11β-HSD1 cells. Cells were routinely cultured in DMEM containing 10% calf foetal serum, 1% glutamine, and 1% penicillin and streptomycin. Prior to assay, cells were plated at 2×10^4 cells/well in 96-well poly-D-Lys coated flat-bottomed microplates and incubated in 5% CO2, 95% O2 at 37° C. for 24 hours. The media in each well was removed immediately before assay.
Compounds to be tested were dissolved in DMSO at 10 mM and serially diluted into water containing 10% DMSO. Diluted compounds at a volume of 10 μL were added to wells of a 96-well V-bottomed microplate. A solution of DMEM, 1% glutamine, 1% penicillin and streptomycin, and 22 nM tritiated cortisone was prepared and 90 μL added to each well of the assay plate. This solution (100 μL/well) was transferred to the plate containing the cells. The plate was then incubated in 5% CO2, 95% O2 at 37° C. for 2 hours.
Following this incubation, 50 μL of the assay solution was transferred to each well of a 96-well scintillation microplate. A mixture consisting of anti-mouse YSi SPA beads, pre-mixed with anti-cortisol antibody in assay buffer (50 mM Tris.HCl, pH 7.0; 300 mM NaCl; 1 mM EDTA, 5% glycerol) was prepared and 50 μL added to each well of the scintillation microplate. An adhesive strip was applied to the microplate and the plate gently shaken for at least 2 hours at room temperature, and then spun briefly on a low speed centrifuge. The plate was read on a scintillation counter suitable for 96-well microplates. For the calculation of percentage inhibition, a series of wells were added to the plate that represented the assay maximum and the assay minimum: one set that contained substrate without cells (minimum) and another set that contained substrate and cells without any compound (maximum).
The calculation of median inhibitory concentration (IC50) values for the compounds was performed using GraphPad Prism® software. Dose-response curves for each compound were plotted as fractional inhibition and data fitted to the four parameter logistic equation.

human 11β-HSD2 = target: T2, human 11β-HSD2 (Homo sapiens, UniProt P80365); test: Cellular in vitro 11β-HSD2 enzyme inhibition assay (CHO cells); format: cell-based; conditions: CHO cells transfected with human 11β-HSD2
T2 construct: CHO cells stably transfected with the full-length gene coding for human 11β-HSD2 were used; expressed in transfected cells; host or cells: CHO (stably transfected)
T2 sequence (P80365 1-405): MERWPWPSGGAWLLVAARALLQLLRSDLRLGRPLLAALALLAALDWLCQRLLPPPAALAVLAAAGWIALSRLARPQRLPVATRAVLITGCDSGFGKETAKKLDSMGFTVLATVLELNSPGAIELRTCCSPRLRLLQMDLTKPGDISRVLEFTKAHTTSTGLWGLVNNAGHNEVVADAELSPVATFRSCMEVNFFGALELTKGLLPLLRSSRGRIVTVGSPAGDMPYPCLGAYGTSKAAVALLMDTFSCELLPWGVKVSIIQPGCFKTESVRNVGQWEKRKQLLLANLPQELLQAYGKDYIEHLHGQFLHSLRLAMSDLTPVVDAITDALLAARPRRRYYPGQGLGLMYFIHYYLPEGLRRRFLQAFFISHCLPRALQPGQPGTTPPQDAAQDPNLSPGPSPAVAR
Description: For measurement of inhibition of 11β-HSD2, CHO cells stably transfected with the full-length gene coding for human 11β-HSD2 were used. Assays were carried out in 96-well microplates containing 1×10^5 cells/well. Controls and compounds were plated as above, so that the final DMSO concentration in each well was 1%. To initiate the assay, 90 μL of a solution of HAMS F-12 medium containing 1% glutamine, 1% penicillin and streptomycin, and 22 nM tritiated cortisol was added to each well of the assay plate. The plate was then incubated in 5% CO2, 95% O2 at 37° C. for 16 hours.
The assay solutions were transferred to glass tubes and […] added to each tube. Each tube was vortexed thoroughly and the upper layer containing the tritiated steroid transferred to a fresh glass tube. The solvent was evaporated by placing the tubes in a heating block at 65° C. under a stream of nitrogen gas. 20 μL ethanol was added to each of the dried samples and vortexed briefly. Each sample was applied to a silica TLC plate and the plate dried. The plate was placed vertically in a glass tank containing 92% chloroform: 8% ethanol and the solvent allowed to rise up the plate. The plate was dried, placed in an imaging cassette, and overlayed with a tritium imaging plate for 1-2 days. The amount of enzyme inhibition in each sample was determined by measuring the intensity of the substrate and product spots using a phospho-imager. IC50 values for inhibitors were determined as described above for 11β-HSD1.

[1] = HEK293 cells transfected with human 11β-HSD1, first value in cell

T1 sequence (P28845 whole entry): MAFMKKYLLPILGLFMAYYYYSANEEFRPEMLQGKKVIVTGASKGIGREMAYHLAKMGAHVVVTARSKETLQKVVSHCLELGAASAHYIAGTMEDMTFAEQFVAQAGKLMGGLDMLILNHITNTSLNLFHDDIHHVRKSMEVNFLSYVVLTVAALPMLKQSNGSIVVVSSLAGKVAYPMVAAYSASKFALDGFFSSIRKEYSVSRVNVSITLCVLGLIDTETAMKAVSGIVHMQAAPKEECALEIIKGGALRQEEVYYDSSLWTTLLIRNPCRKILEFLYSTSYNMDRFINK

For Cc1cccnc1C1(F)CC2CCC(C1)N2C(=O)c1csc(-c2cn[nH]c2)c1 (single isomer, unassigned) [XX-16, [3-Fluoro-3-(3-methyl-pyridin-2-yl)-8-aza-bicyclo[3.2.1]oct-8-yl]-[5-(1H-pyrazol-4-yl)-thiophen-3-yl]-methanone], the IC50 (human 11β-HSD1; HEK293, potency groups) was at most 0.1 µM, the IC50 (human 11β-HSD1; [1]) was 0.009 µM and the IC50 (human 11β-HSD2) was over 10000 nM.

For O=C(c1csc(-c2cn[nH]c2)c1)N1C2CCC1CC(F)(c1nccs1)C2 (single isomer, unassigned) [XX-34, (3-Fluoro-3-thiazol-2-yl-8-aza-bicyclo[3.2.1]oct-8-yl)-[5-(1H-pyrazol-4-yl)-thiophen-3-yl]-methanone], the IC50 (human 11β-HSD1; HEK293, potency groups) was 0.1 to 0.5 µM.

Molecule O=C(c1csc(-c2cn[nH]c2)c1)N1C2CCC1CC(O)(c1ncccc1F)C2 (stereo not shown) [XX-02] has an IC50 (human 11β-HSD1; HEK293, potency groups, μM) of 0.5 to 10 µM.

For O=C(c1csc(-c2cn[nH]c2)c1)N1C2CCC1CC(O)(c1ncccc1Cl)C2 (stereo not shown) [XX-03], the IC50 (human 11β-HSD1; HEK293, potency groups) was at most 0.1 µM, the IC50 (human 11β-HSD1; [1]) was 0.012 µM and the IC50 (human 11β-HSD2) was over 10000 nM.

Molecule O=C(c1csc(-c2cn[nH]c2)c1)N1C2CCC1CC(O)(c1ccncc1Cl)C2 (stereo not shown) [XX-04] has an IC50 (human 11β-HSD1; HEK293, potency groups) of at most 0.1 µM.

In the case of COc1cccc(C2(O)CC3CCC(C2)N3C(=O)c2csc(-c3cn[nH]c3)c2)n1 (stereo not shown) [XX-05], the IC50 (human 11β-HSD1; HEK293, potency groups) is reported as at most 0.1 µM.

For COc1cccnc1C1(O)CC2CCC(C1)N2C(=O)c1csc(-c2cn[nH]c2)c1 (stereo not shown) [XX-06], the IC50 (human 11β-HSD1; HEK293, potency groups) was at most 0.1 µM.

Work on Cc1cccnc1C1(O)CC2CCC(C1)N2C(=O)c1csc(-c2cn[nH]c2)c1 (stereo not shown) [XX-07] yielded an IC50 (human 11β-HSD1; HEK293, potency groups) of at most 0.1 µM, an IC50 (human 11β-HSD1; [1]) of 0.003 µM and an IC50 (human 11β-HSD2) of over 10000 nM.

With CN(C)c1cccc(C2(O)CC3CCC(C2)N3C(=O)c2csc(-c3cn[nH]c3)c2)n1 (stereo not shown) [XX-08] the IC50 (human 11β-HSD1; HEK293, potency groups) was at most 0.1 µM.

O=C(c1csc(-c2cn[nH]c2)c1)N1C2CCC1CC(O)(c1ncccc1C(F)(F)F)C2 (stereo not shown) [XX-09] showed an IC50 (human 11β-HSD1; HEK293, potency groups) of at most 0.1 µM.

COC1(c2ccccn2)CC2CCC(C1)N2C(=O)c1csc(-c2cn[nH]c2)c1 (stereo not shown) [XX-10] showed an IC50 (human 11β-HSD1; HEK293, potency groups) of at most 0.1 µM.

For COC1(c2ncccc2C)CC2CCC(C1)N2C(=O)c1csc(-c2cn[nH]c2)c1 (stereo not shown) [XX-11], the IC50 (human 11β-HSD1; HEK293, potency groups) was at most 0.1 µM.

Work on CCOC1(c2ccccn2)CC2CCC(C1)N2C(=O)c1csc(-c2cn[nH]c2)c1 (stereo not shown) [XX-12] yielded an IC50 (human 11β-HSD1; HEK293, potency groups) of at most 0.1 µM.

Work on O=C(c1csc(-c2cn[nH]c2)c1)N1C2CCC1CC(F)(c1ccccn1)C2 (stereo not shown) [XX-14] yielded an IC50 (human 11β-HSD1; HEK293, potency groups) of at most 0.1 µM.

Cc1cccnc1C1(C#N)CC2CCC(C1)N2C(=O)c1csc(-c2cn[nH]c2)c1 (stereo not shown) [XX-19] gave an IC50 (human 11β-HSD1; HEK293, potency groups) of at most 0.1 µM.

Molecule O=C(c1csc(-c2cn[nH]c2)c1)N1C2CCC1CC(O)(c1ccncn1)C2 (stereo not shown) [XX-21] has an IC50 (human 11β-HSD1; HEK293, potency groups, μM) of 0.5 to 10 µM.

In the case of O=C(c1csc(-c2cn[nH]c2)c1)N1C2CCC1CC(O)(c1cncnc1)C2 (stereo not shown) [XX-22], the IC50 (human 11β-HSD1; HEK293, potency groups, μM) is reported as 0.5 to 10 µM.

With O=C(c1csc(-c2cn[nH]c2)c1)N1C2CCC1CC(O)(c1ncncc1Cl)C2 (stereo not shown) [XX-23] the IC50 (human 11β-HSD1; HEK293, potency groups) was at most 0.1 µM.

Cc1nccnc1C1(O)CC2CCC(C1)N2C(=O)c1csc(-c2cn[nH]c2)c1 (stereo not shown) [XX-25] showed an IC50 (human 11β-HSD1; HEK293, potency groups) of 0.1 to 0.5 µM.
